Laboratory results: patent US20260028390A1, “ALPHA1-ANTITRYPSIN FOR USE IN THE TREATMENT OF DISEASES OR DISORDERS OF THE NERVOUS SYSTEM SUCH AS CHRONIC INFLAMMATORY DEMYELINATING POLYNEUROPATHY” (Ageronix SA, priority 2022, published 2026)

System: HMC3-MHCII^Luc cells
Assay: RNAseq differential gene expression / GSEA in AAT-treated resting and IFNγ-activated microglia
Format: cell-based, human
Procedure: • A) Human microglial HMC3-MHCII^Luc cells were plated at day 0, presented IFNγ at day 1 until day 2 and measurement of the luciferase activity and cell viability were done at day 4. • B) AATs were applied from day 0 to day 4 on HMC3-MHCII^Luc cells. Activation was measured by the activity of MHCII-driven luciferase and represented as percentage of IFNγ control for all conditions. All conditions were performed in triplicates, error bars represent standard deviation. • C) Bulk RNA extraction was performed on the same HMC3-MHCII^Luc cultures. Quality control (QC) were applied to RNA before sequencing. QC of the sequencing was done prior to mapping on the human genome. Mapped reads were counted, and differential gene expression was measured between the conditions (see Table 1-10). (FIGS. 3A, 3B and 3C)
RNAseq data from plasma-derived and recombinant AATs were pooled, normalized and analyzed through Gene Set Enrichment Analysis (GSEA) (https://www.gsea-msigdb.org/gsea/index.jsp; Subramanian, A., et al. Proc. Natl. Acad. Sci. USA, 102 (43): 15545-15550, 2005.). […] Importantly, both the IFNγ and inflammatory responses were dampened by AAT. However, the downregulation of the inflammatory response genes in (C) was just under significance.
Tables of genes related to antigen presentation (Table 1), cytokine signaling (Table 2), interferon signaling (Table 3) and complement activation (Table 4). Inflammatory top gene (FC>2; p-value<0.05; left column), were defined by differential expression between untreated and IFNγ-treated cells (inflammation; middle column).
HMC3-MHCII^Luc and HMC3-MHCII^Luc; Ubi^AAT (endogenous AAT) cell lines were seeded into 96-well plates at a density of approximately 2500 cells/well. HMC3-MHCII^Luc cell line was plated and was added plasma-derived AAT and recombinant AATs (produced in CHO cells, AAT 1 and AAT 2) 3h later and at ranged concentration (1; 10 or 25 μM). 24h after, still in the presence of exogenous or endogenous AAT, microglial activation was induced with a 24h-long IFNγ presentation (10 ng/ml). IFNγ was then removed and both HMC3-MHCII^Luc and HMC3-MHCII^Luc; Ubi^AAT cells were cultured for 48h in exogenous or endogenous presence of AAT before cell cultures were beeing assessed for cell viability and activation (See FIGS. 3A, 3B, 3C and 4A,4B, 4C).
RNA samples from plasma-derived AAT and recombinant AAT Nr. 2 were checked for quality (2100 Bioanalyzer, Agilent) and libraries prepared with Truseq RNA Library Kit (Illumina, RS-122-2001). Libraries were sequenced (HiSeq 4000, Illumina) controlled for the quality of sequencing (FastQC), mapped on the human genome (STAR v.2.7.0f; UCSC hg38), reads were counted (HTSeq v0.9.1) and the differential expression analysis was performed with the R/Bioconductor package (edgeR 1.30.1.).

[1] = AAT (left block), GBS risk gene
[2] = AAT, resting microglia, AD risk gene
[3] = AAT, resting microglia, MCT*/PN risk gene
[4] = AAT, resting microglia, MS risk gene
[5] = AAT, resting microglia, PD risk gene
[6] = FC AAT, resting microglia, M2 gene

alpha1-antitrypsin (AAT) protein was tested, and the “CDC42 expression FC AAT” value [1] was −1.35, the “FOS expression FC AAT” value [1] was −2.31 and the “GLRX5 expression FC AAT” value [1] was 1.12. The “GUK1 expression FC AAT” value [1] was 1.57, the “HAGH expression FC AAT” value [1] was 1.40 and the “HMGB2 expression FC AAT” value [1] was −1.20. The “MARCKS expression FC AAT” value [1] was −2.06, the “PKN2 expression FC AAT” value [1] was −1.47 and the “SENP6 expression FC AAT” value [1] was −1.47. The “SMCHD1 expression FC AAT” value [1] was −1.39, the “ZNF12 expression FC AAT” value [1] was −1.26 and the “IFNγ and inflammatory responses (GSEA gene families)” value (AAT treatment in absence or presence of IFNγ, pooled plasma-derived and recombinant AAT RNAseq data) was “dampened”. The “ABCA7 expression FC” value [2] was 1.75, the “APOE expression FC” value [2] was 1.74 and the “BIN1 expression FC” value [2] was 1.33. For the same substance, the “CD2AP expression FC” value [2] was −1.39, the “CLU expression FC” value [2] was −1.30 and the “PICALM expression FC” value [2] was −1.48. For the same substance, the “PSEN2 expression FC” value [2] was 1.45, the “TREM2 expression FC” value [2] was 2.22 and the “ARHGEF10 expression FC” value [3] was 1.19. The “CCT5 expression FC” value [3] was −1.17, the “DNAJB2* expression FC” value [3] was 1.39 and the “DST expression FC” value [3] was −1.35. For the same substance, the “DYNC1H1* expression FC” value [3] was −1.40, the “FIG4* expression FC” value [3] was −1.42 and the “GAN* expression FC” value [3] was −1.21. For the same substance, the “GARS* expression FC” value [3] was −1.21, the “GDAP1* expression FC” value [3] was −1.54 and the “GNB4* expression FC” value [3] was −1.56. The “HSPB1* expression FC” value [3] was 1.67, the “IFRD1 expression FC” value [3] was 1.23 and the “IGHMBP2* expression FC” value [3] was 1.39. For the same substance, the “KIF1A expression FC” value [3] was 2.76, the “KIF1B* expression FC” value [3] was −1.21 and the “LRSAM1* expression FC” value [3] was 1.36. The “MTMR2* expression FC” value [3] was −1.36, the “PLEKHG5* expression FC” value [3] was 1.49 and the “SBF2 expression FC” value [3] was −1.20. For the same substance, the “SCN9A expression FC” value [3] was −1.50, the “SCN11A expression FC” value [3] was 4.49 and the “SETX expression FC” value [3] was −1.23. For the same substance, the “SPTLC1 expression FC” value [3] was −1.23, the “TFG* expression FC” value [3] was −1.28 and the “TRIM2* expression FC” value [3] was −1.39. For the same substance, the “TRPV4* expression FC” value [3] was 1.92, the “WNK1 expression FC” value [3] was −1.14 and the “AGAP2 expression FC” value [4] was 1.30. The “AHI1 expression FC” value [4] was −1.46, the “CBLB expression FC” value [4] was −1.24 and the “CD40 expression FC” value [4] was 1.17. For the same substance, the “CD58 expression FC” value [4] was −1.61, the “CDC37 expression FC” value [4] was 1.26 and the “CYP24A1 expression FC” value [4] was 2.55. The “EXTL2 expression FC” value [4] was −1.76, the “HLA-A expression FC” value [4] was 1.48 and the “HLA-DRB1 expression FC” value [4] was −1.47. For the same substance, the “METTL1 expression FC” value [4] was 1.22, the “MPV17L2 expression FC” value [4] was 1.31 and the “PTGER4 expression FC” value [4] was −1.29. The “PTPRK expression FC” value [4] was −1.38, the “RPS6KB1 expression FC” value [4] was −1.23 and the “SLC30A7 expression FC” value [4] was −1.77. For the same substance, the “ATP13A2 expression FC” value [5] was 1.42, the “DNAJC6 expression FC” value [5] was −1.14 and the “DNAJC13 expression FC” value [5] was −1.37. The “GIGYF2 expression FC” value [5] was −1.16, the “LRP10 expression FC” value [5] was 1.29 and the “LRRK2 expression FC” value [5] was −3.98. The “PLA2G6 expression FC” value [5] was 1.55, the “SYNJ1 expression FC” value [5] was −1.33 and the “TMEM230 expression FC” value [5] was −1.42. The “VPS13C expression FC” value [5] was −1.41, the “VPS35 expression FC” value [5] was −1.42 and the “ACAN expression FC” value [6] was 1.37. For the same substance, the “AP2A2 expression FC” value [6] was 1.26, the “APLP1 expression FC” value [6] was 1.41 and the “APRT expression FC” value [6] was 1.16. The “BAIAP2 expression FC” value [6] was 1.45, the “C16orf45 expression FC” value [6] was 1.31 and the “CHPF expression FC” value [6] was 1.80. The “COL1A1 expression FC” value [6] was 1.58, the “COL11A1 expression FC” value [6] was 1.14 and the “DBN1 expression FC” value [6] was 1.42. For the same substance, the “ENG expression FC” value [6] was 1.29, the “EXTL1 expression FC” value [6] was 2.19 and the “FEZ1 expression FC” value [6] was 1.45. The “FGD3 expression FC” value [6] was 1.76, the “FOXC1 expression FC” value [6] was 1.26 and the “FZD2 expression FC” value [6] was 1.39. For the same substance, the “FZD7 expression FC” value [6] was 1.24, the “GADD45GIP1 expression FC” value [6] was 1.55 and the “GREM1 expression FC” value [6] was 1.69. For the same substance, the “GUK1 expression FC” value [6] was 1.57, the “HSPG2 expression FC” value [6] was 1.58 and the “IGFBP2 expression FC” value [6] was 1.63. The “ITGA11 expression FC” value [6] was 1.65, the “MARCH4 expression FC” value [6] was 1.28 and the “MBOAT7 expression FC” value [6] was 1.44. For the same substance, the “METRN expression FC” value [6] was 2.23, the “MIF expression FC” value [6] was 1.83 and the “MMP1 expression FC” value [6] was 2.51. The “MOSPD3 expression FC” value [6] was 1.51, the “MXRA8 expression FC” value [6] was 1.40 and the “NID1 expression FC” value [6] was 1.16. For the same substance, the “NTN4 expression FC” value [6] was 1.25, the “PAPPA expression FC” value [6] was 1.24 and the “PLEC expression FC” value [6] was 1.69. The “PLTP expression FC” value [6] was 1.28, the “PREX1 expression FC” value [6] was 1.25 and the “PRSS36 expression FC” value [6] was 1.58. The “PTPRS expression FC” value [6] was 1.27, the “RAB3IL1 expression FC” value [6] was 1.55 and the “RASA4B expression FC” value [6] was 1.46. The “RASAL1 expression FC” value [6] was 1.52, the “SART1 expression FC” value [6] was 1.44 and the “SEMA3B expression FC” value [6] was 1.50. The “SERPINH1 expression FC” value [6] was 1.21, the “SLC22A5 expression FC” value [6] was 1.22 and the “STC2 expression FC” value [6] was 1.42. For the same substance, the “TAGLN expression FC” value [6] was 1.37, the “TBCD expression FC” value [6] was 1.26 and the “TEKT4P2 expression FC” value [6] was 2.46. For the same substance, the “TGFB1I1 expression FC” value [6] was 1.31, the “TNFRSF1B expression FC” value [6] was 1.46 and the “TTC9 expression FC” value [6] was 1.65. The “ZIC2 expression FC” value [6] was 2.42, the “AHNAK2 expression FC” value (FC inflammation + AAT, M2 gene) was 1.40 and the “ANPEP expression FC” value (FC inflammation + AAT, M2 gene) was 1.25. For the same substance, the “ARHGDIB expression FC” value (FC inflammation + AAT, M2 gene) was 1.28, the “BAIAP2 expression FC” value (FC inflammation + AAT, M2 gene) was 1.24 and the “BGN expression FC” value (FC inflammation + AAT, M2 gene) was 1.27. For the same substance, the “CHPF expression FC” value (FC inflammation + AAT, M2 gene) was 1.58, the “CLIP3 expression FC” value (FC inflammation + AAT, M2 gene) was 1.25 and the “CLMP expression FC” value (FC inflammation + AAT, M2 gene) was 1.22. The “COL11A1 expression FC” value (FC inflammation + AAT, M2 gene) was 1.16, the “DBN1 expression FC” value (FC inflammation + AAT, M2 gene) was 1.31 and the “ENG expression FC” value (FC inflammation + AAT, M2 gene) was 1.35. For the same substance, the “EXTL1 expression FC” value (FC inflammation + AAT, M2 gene) was 1.78, the “FADS2 expression FC” value (FC inflammation + AAT, M2 gene) was 1.20 and the “FAT1 expression FC” value (FC inflammation + AAT, M2 gene) was 1.34. The “FEZ1 expression FC” value (FC inflammation + AAT, M2 gene) was 1.34, the “FGD3 expression FC” value (FC inflammation + AAT, M2 gene) was 2.31 and the “FZD2 expression FC” value (FC inflammation + AAT, M2 gene) was 1.37. The “FZD7 expression FC” value (FC inflammation + AAT, M2 gene) was 1.36, the “GADD45GIP1 expression FC” value (FC inflammation + AAT, M2 gene) was 1.51 and the “GATA6 expression FC” value (FC inflammation + AAT, M2 gene) was 1.47. The “GREM1 expression FC” value (FC inflammation + AAT, M2 gene) was 1.56, the “GUK1 expression FC” value (FC inflammation + AAT, M2 gene) was 1.31 and the “HCK expression FC” value (FC inflammation + AAT, M2 gene) was 1.44. For the same substance, the “HLA-DRB5 expression FC” value (FC inflammation + AAT, M2 gene) was 2.09 and the “HSPG2 expression FC” value (FC inflammation + AAT, M2 gene) was 1.41.
